Reference: patent publication US10174011B2, “Heterocyclic compounds, process for preparation of the same and use thereof” (SHANGHAI INSTITUTE OF MATERIA MEDICA, CHINESE ACADEMY OF …, priority 2014, dated 2019)
Where a name gives a salt, the structure may show the parent alone. Read-outs that look alike come from different tables or passages of the source.

Legend:
[1] = target: human recombinant 5-HT1A receptor (Homo sapiens (Human), UniProt P08908); assay: 5-HT1A receptor agonism activity test (inhibition of cAMP production, LANCE cAMP 384 Kit); format: cell-based; settings: HEK293 cells expressing human recombinant 5-HT1A receptor; test concentration 0.1 nM-10000 nM; read-out: 5-HT1A receptor agonism (EC50, mol/L)
Source text: Pharmacological Test 1) 5-HT1A Receptor Agonism Activity Test

[2] = target: human recombinant 5-HT2A receptor (Homo sapiens (Human), UniProt P28223); assay: 5-HT2A receptor antagonism activity test (FLIPR Calcium 5 Assay Kit); settings: read-out: 5-HT2A receptor antagonism (IC50, mol/L)
[3] = target: human recombinant D2 receptor (Homo sapiens (Human), UniProt P14416); assay: D2 receptor antagonism activity test (inhibition of dopamine-induced decrease of cAMP production, LANCE cAMP 384 Kit); settings: read-out: D2 receptor antagonism (IC50, mol/L), HEK293 cells expressing human recombinant D2 receptor, 0.1 nM-10000 nM
[4] = CHO-K1 cells expressing human recombinant 5-HT2A receptor, α-methyl-5-hydroxytryptamine 300 nM, 0.1 nM-10000 nM

Sequence of human recombinant 5-HT2A receptor (P28223 whole entry): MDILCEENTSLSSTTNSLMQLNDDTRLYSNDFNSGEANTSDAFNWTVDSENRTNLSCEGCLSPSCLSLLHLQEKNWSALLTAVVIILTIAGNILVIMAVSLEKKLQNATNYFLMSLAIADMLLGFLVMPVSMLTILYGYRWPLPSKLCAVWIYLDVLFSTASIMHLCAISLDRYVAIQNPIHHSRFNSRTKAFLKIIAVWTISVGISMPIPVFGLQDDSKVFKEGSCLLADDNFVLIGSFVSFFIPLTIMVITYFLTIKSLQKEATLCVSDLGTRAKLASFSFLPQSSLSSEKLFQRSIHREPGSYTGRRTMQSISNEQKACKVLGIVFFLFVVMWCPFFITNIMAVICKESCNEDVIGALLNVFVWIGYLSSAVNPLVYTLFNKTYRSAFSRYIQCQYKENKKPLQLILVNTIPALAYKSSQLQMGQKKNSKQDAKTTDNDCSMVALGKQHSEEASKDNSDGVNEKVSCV
Sequence of human recombinant D2 receptor (P14416 whole entry): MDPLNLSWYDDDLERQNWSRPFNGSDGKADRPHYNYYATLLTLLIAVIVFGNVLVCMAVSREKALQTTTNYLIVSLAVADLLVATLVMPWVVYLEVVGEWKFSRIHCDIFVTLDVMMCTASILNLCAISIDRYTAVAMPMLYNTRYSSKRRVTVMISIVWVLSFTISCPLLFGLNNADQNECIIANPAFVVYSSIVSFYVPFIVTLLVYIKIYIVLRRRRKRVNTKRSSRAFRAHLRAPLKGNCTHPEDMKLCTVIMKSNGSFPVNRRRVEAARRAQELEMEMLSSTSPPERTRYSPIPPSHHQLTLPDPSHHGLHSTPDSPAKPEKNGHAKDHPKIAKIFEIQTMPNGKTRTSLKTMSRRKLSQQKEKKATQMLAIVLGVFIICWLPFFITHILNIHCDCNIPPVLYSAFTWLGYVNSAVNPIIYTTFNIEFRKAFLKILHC
Sequence of human recombinant 5-HT1A receptor (P08908 whole entry): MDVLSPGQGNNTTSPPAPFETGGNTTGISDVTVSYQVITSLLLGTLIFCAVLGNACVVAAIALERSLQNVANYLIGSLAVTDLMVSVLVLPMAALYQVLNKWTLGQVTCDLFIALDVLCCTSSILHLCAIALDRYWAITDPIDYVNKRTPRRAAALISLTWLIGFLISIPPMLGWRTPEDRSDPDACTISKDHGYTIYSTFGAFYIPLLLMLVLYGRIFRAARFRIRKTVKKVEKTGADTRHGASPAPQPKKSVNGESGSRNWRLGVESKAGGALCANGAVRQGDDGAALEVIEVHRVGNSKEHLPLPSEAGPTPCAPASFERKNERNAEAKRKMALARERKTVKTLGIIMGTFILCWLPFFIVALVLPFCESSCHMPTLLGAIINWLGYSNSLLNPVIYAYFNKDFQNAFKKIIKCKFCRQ

| SMILES | EC50 [1] [nM] | IC50 [2, 4] [nM] | IC50 [3] [nM] | IC50 [2] [nM] |
| --- | --- | --- | --- | --- |
| O=C1Cc2cc(CCN3CCN(c4cccc5c4CCS5)CC3)c(Cl)cc2N1 [Compound of example 1, 6-chloro-5-(2-(4-(2,3-dihydrobenzo[b]thiophen-4-yl)piperazin-1-yl)ethyl)indolin-2-one] | 3.31 | 227 | 56.9 | – |
| O=c1ccc2ccc(CCN3CCN(c4cccc5sccc45)CC3)cc2[nH]1 [Compound of example 9, 7-(2-(4-(benzo[b]thiophen-4-yl)piperazin-1-yl)ethyl)quinolin-2(1H)-one] | 0.972 | – | 7.06 | 95.6 |
| O=c1ccc2ccc(CCCCCN3CCN(c4cccc5sccc45)CC3)cc2[nH]1 [Compound of example 11, 7-(5-(4-(benzo[b]thiophen-4-yl)piperazin-1-yl)pentyl)quinolin-2(1H)-one] | 1.95 | 209 | – | – |
| Cc1nc2c(OCc3ccccc3)cccn2c(=O)c1CCN1CCN(c2cccc3sccc23)CC1 [Compound of example 17, 3-(2-(4-(benzo[b]thiophen-4-yl)piperazin-1-yl)ethyl)-9-(benzyloxy)-2-methyl-4H-pyrido[1,2-a]pyrimidin-4-one hydrochloride] | – | 350 | – | – |
| O=C1CCc2cc(Cl)c(CCN3CCN(c4cccc5sccc45)CC3)cc2N1 [Compound of example 23, 7-(2-(4-(benzo[b]thiophen-4-yl)piperazin-1-yl)ethyl)-6-chloro-3,4-dihydroquinolin-2(1H)-one] | 463 | 97.6 | 81.2 | – |
| Cc1nc2ccc(CCCCCN3CCN(c4cccc5sccc45)CC3)cc2c(=O)[nH]1 [Compound of example 24, 6-(5-(4-(benzo[b]thiophen-4-yl)piperazin-1-yl)pentyl)-2-methylquinazolin-4(3H)-one] | 25.9 | 781 | 50.7 | – |
| O=c1ccc2ccc(CCN3CCN(c4cccc5c4CCS5)CC3)cc2[nH]1 [Compound of example 25, 7-(2-(4-(2,3-dihydrobenzo[b]thiophen-4-yl)piperazin-1-yl)ethyl)quinolin-2(1H)-one] | 0.824 | – | 85.1 | 77.9 |
| O=c1[nH]cnc2ccc(CCCCCN3CCN(c4cccc5sccc45)CC3)cc12 [Compound of example 34, 6-(5-(4-(benzo[b]thiophen-4-yl)piperazin-1-yl)pentyl)quinazolin-4(3H)-one hydrochloride] | 54 | – | 324 | – |
| O=c1[nH]c(CCN2CCN(c3cccc4sccc34)CC2)nc2ccccc12 [Compound of example 35, 2-(2-(4-(benzo[b]thiophen-4-yl)piperazin-1-yl)ethyl)quinazolin-4(3H)-one] | 41.9 | 21.5 | 216 | – |
| O=C1Cc2cc(CCN3CCC(c4cccc5sccc45)CC3)c(Cl)cc2N1 [Compound of example 37, 5-(2-(4-(benzo[b]thiophen-4-yl)piperidin-1-yl)ethyl)-6-chloroindolin-2-one] | 3.11 | 28.1 | 51.9 | – |
| O=C1Cc2cc(CCN3CCN(c4cncc5sccc45)CC3)c(Cl)cc2N1 [Compound of example 42, 6-chloro-5-(2-(4-(thieno[2,3-c]pyridin-4-yl)piperazin-1-yl)ethyl)indolin-2-one] | 100 | 115 | 270 | – |
| O=c1ccc2ccc(CCN3CCN(c4cncc5sccc45)CC3)cc2[nH]1 [Compound of example 43, 7-(2-(4-(thieno[2,3-c]pyridin-4-yl)piperazin-1-yl)ethyl)quinolin-2(1H)-one] | 1.23 | 286 | 241 | – |
| c1ccc2[nH]c(CN3CCN(c4cccc5sccc45)CC3)nc2c1 [Compound of example 58, 2-((4-(benzo[b]thiophen-4-yl)piperazin-1-yl)methyl)-1H-benzo[d]imidazole] | 4.55 | 2170 | 101 | – |
| O=C1COc2cc(F)c(CCN3CCN(c4cccc5sccc45)CC3)cc2N1 [Compound of example 66, 6-(2-(4-(benzo[b]thiophen-4-yl)piperazin-1-yl)ethyl)-7-fluoro-2H-benzo[b][1,4]oxazin-3(4H)-one] | 1.29 | 81.5 | 61.7 | – |
| N#Cc1ccc2[nH]cc(CCCCN3CCN(c4cccc5sccc45)CC3)c2c1 [Compound of example 70, 3-(4-(4-(benzo[b]thiophen-4-yl)piperazin-1-yl)butyl)-1H-indole-5-carbonitrile] | 9.7 | 332 | 79.7 | – |
| O=C1Cc2cc(CCN3CCN(c4cc(F)cc5sccc45)CC3)ccc2N1 [Compound of example 84, 5-(2-(4-(6-fluorobenzo[b]thiophen-4-yl)piperazin-1-yl)ethyl)indolin-2-one] | 0.235 | 17.5 | 10.9 | – |

| SMILES | EC50 [1] [nM] | IC50 [2, 4] [nM] | IC50 [3] [nM] | IC50 [2] [nM] |
| --- | --- | --- | --- | --- |
| Cn1c(=O)[nH]c2ccc(CCN3CCN(c4cccc5sccc45)CC3)cc21 [Compound of example 86, 6-(2-(4-(benzo[b]thiophen-4-yl)piperazin-1-yl)ethyl)-1-methyl-1H-benzo[d]imidazol-2(3H)-one] | 21.6 | 93.3 | 23.5 | – |
| Cc1nc2n(c(=O)c1CCN1CCN(c3cc(F)cc4sccc34)CC1)CCCC2 [Compound of example 90, 3-(2-(4-(6-fluorobenzo[b]thiophen-4-yl)piperazin-1-yl)ethyl)-2-methyl-6,7,8,9-tetrahydro-4H-pyrido[1,2-a]pyrimidin-4-one] | 27.7 | 13.6 | 10.4 | – |
| O=C1COc2ccc(CCN3CCC(c4cccc5sccc45)CC3)cc2N1 [Compound of example 97, 6-(2-(4-(benzo[b]thiophen-4-yl)piperidin-1-yl)ethyl)-2H-benzo[b][1,4]oxazin-3(4H)-one] | 0.223 | 173 | 6.81 | – |
| O=C1CCc2cc(CCN3CCC(c4cccc5sccc45)CC3)ccc2N1 [Compound of example 98, 6-(2-(4-(benzo[b]thiophen-4-yl)piperidin-1-yl)ethyl)-3,4-dihydroquinolin-2(1H)-one] | 2.9 | 185 | 12.4 | – |
| O=C1Cc2cc(CCCCN3CCN(c4cccc5sc(F)cc45)CC3)ccc2N1 [Compound of example 101, 5-(4-(4-(2-fluorobenzo[b]thiophen-4-yl)piperazin-1-yl)butyl)indolin-2-one] | 16.8 | 759 | 1.84 | – |
| O=C1CCc2cc(CCCCN3CCC(c4cccc5sccc45)CC3)ccc2N1 [Compound of example 104, 6-(4-(4-(benzo[b]thiophen-4-yl)piperidin-1-yl)butyl)-3,4-dihydroquinolin-2(1H)-one] | 12.3 | 106 | 98.8 | – |
| COc1ccc2[nH]cc(CCN3CCN(c4cccc5sccc45)CC3)c2c1 [Compound of example 105, 3-(2-(4-(benzo[b]thiophen-4-yl)piperazin-1-yl)ethyl)-5-methoxy-1H-indole] | – | – | – | 25.5 |
| COc1ccc2[nH]cc(CCCN3CCN(c4cccc5sccc45)CC3)c2c1 [Compound of example 106, 3-(3-(4-(benzo[b]thiophen-4-yl)piperazin-1-yl)propyl)-5-methoxy-1H-indole] | 10.4 | 662 | 543 | – |
| COc1ccc2[nH]cc(CCCCN3CCN(c4cccc5sccc45)CC3)c2c1 [Compound of example 107, 3-(4-(4-(benzo[b]thiophen-4-yl)piperazin-1-yl)butyl)-5-methoxy-1H-indole] | 7.95 | 393 | 8.43 | – |
| N#Cc1ccc2[nH]cc(CCCN3CCN(c4cccc5sccc45)CC3)c2c1 [Compound of example 108, 3-(3-(4-(benzo[b]thiophen-4-yl)piperazin-1-yl)propyl)-1H-indole-5-carbonitrile] | 44.9 | 819 | 21.7 | – |
| N#Cc1ccc2[nH]cc(CCN3CCN(c4cccc5sccc45)CC3)c2c1 [Compound of example 109, 3-(2-(4-(benzo[b]thiophen-4-yl)piperazin-1-yl)ethyl)-1H-indole-5-carbonitrile] | – | 200 | 243 | – |
| CC(=O)n1cc(CCCCN2CCN(c3cccc4sccc34)CC2)c2cc(C#N)ccc21 [Compound of example 110, 1-acetyl-3-(4-(4-(benzo[b]thiophen-4-yl)piperazin-1-yl)butyl)-1H-indole-5-carbonitrile] | 84 | 1760 | 57.6 | – |
| O=C1CCc2cc(CCCCN3CCN(c4cccc5sccc45)CC3)ccc2N1 [Compound of example 111, 6-(4-(4-(benzo[b]thiophen-4-yl)piperazin-1-yl)butyl)-3,4-dihydroquinolin-2(1H)-one] | 29.5 | 400 | 23.9 | – |
| Nc1nc2cc(CCN3CCN(c4cccc5sccc45)CC3)ccc2s1 [Compound of example 116, 5-(2-(4-(benzo[b]thiophen-4-yl)piperazin-1-yl)ethyl)benzo[d]thiazol-2-amine] | – | – | 5.97 | – |
| Nc1nc2c(CCN3CCN(c4cccc5sccc45)CC3)cccc2s1 [Compound of example 120, 4-(2-(4-(benzo[b]thiophen-4-yl)piperazin-1-yl)ethyl)benzo[d]thiazol-2-amine] | – | – | 229 | – |
| c1cc(N2CCN(CCCCc3nnnn3C3CCCCC3)CC2)c2ccsc2c1 [Compound of example 138, 1-(benzo[b]thiophen-4-yl)-4-(4-(1-cyclohexyl-1H-tetrazol-5-yl)butyl)piperazine hydrochloride] | – | – | 9.4 | – |
